Data published in patent US11253527B2, “Method and composition for inhibiting virus infection” (priority 2019, dated 2022).

What was measured:
[1] = test system: Oral epithelial cells (OC3); assay: MTT cell viability of mock- or HSV-1-infected oral epithelial cells (OC3); format: cell-based; conditions: OC3 cells, MTT, 19 hours post infection
Protocol: (§1) FIG. 4 provides Experimental conditions for evaluation of the effects of Antrodia camphorata fruit body extracts on oral epithelial cells during HSV-1 infection. Three experimental conditions, including no-treatment, pre-treatment and post-treatment were performed. Oral epithelial cells (OC3) were pre-treated with media only or media containing each Antrodia camphorata extracts for 2 hours, followed by HSV-1 inoculation. Cells were infected with HSV-1 viruses at multiplicity of infection (MOI) of 5 or mock infected for 1 hour at 37° C. for viral entry to occur. Antrodia camphorata extracts were not added during viral inoculation for 1 hour to avoid of its direct effects on virions. Mock- or HSV-1-infected cells were further incubated in the absence or presence of the drug for 19 hours.
The oral epithelial cell line (OC3) was used to determine the possible effects of Antrodia camphorata extracts on oral epithelial cells during HSV-1 infection. Cell monolayers were treated as illustrated in FIG. 4 (please also see details in the Materials and Methods section). Three experimental conditions, including no-treatment, pre-treatment and post-treatment were performed. Whether these Antrodia camphorata extracts have effects before or after viral infection were examined. The effects of Antrodia camphorata extracts on viral propagation (viral yields) in infected oral epithelial cells were examined. At 19-20 h post infection, viral yields in the supernatants were determined using the plaque assay. Viability of treated cells was also determined using the MTT assay for the mitochondrial dehydrogenase activity. Moreover, purified HSV-1 virions were directly treated with Antrodia camphorata extracts to examine whether Antrodia camphorata extracts exert anti-HSV-1 activity directly on virus particles before viral entry. […]
The mitochondrial dehydrogenase activity of treated cells was evaluated using the FBS-free medium containing 1 mg/ml of 3-[4,5-dimethylthiazol-2-yl]-2,5 diphenyltetrazolium bromide (MTT). […]

[2] = test system: HSV-1 virus (KOS strain); assay: HSV-1 viral yields in supernatants of OC3 cells, plaque assay; format: cell-based, Herpes simplex virus type 1; conditions: for viral yields in the supernatants, post-treatment: OC3 cells post-treated after HSV-1 infection (MOI 5), 19 hours; for viral yield reduced to: media control = 100%; for viral yields in the supernatants, pre-treatment: OC3 cells pre-treated 2 hours before HSV-1 infection (MOI 5)
Protocol: as §1
(§2) The oral epithelial cell line (OC3) was used to determine the possible effects of Antrodia camphorata extracts on oral epithelial cells during HSV-1 infection. Cell monolayers were treated as illustrated in FIG. 4 (please also see details in the Materials and Methods section). Three experimental conditions, including no-treatment, pre-treatment and post-treatment were performed. Whether these Antrodia camphorata extracts have effects before or after viral infection were examined. The effects of Antrodia camphorata extracts on viral propagation (viral yields) in infected oral epithelial cells were examined. At 19-20 h post infection, viral yields in the supernatants were determined using the plaque assay. Viability of treated cells was also determined using the MTT assay for the mitochondrial dehydrogenase activity. Moreover, purified HSV-1 virions were directly treated with Antrodia camphorata extracts to examine whether Antrodia camphorata extracts exert anti-HSV-1 activity directly on virus particles before viral entry.
HSV-1 virus (KOS strain) from the extra-cellular fluid of infected Vero cells was purified using sucrose-gradient. Purified viruses were stored frozen in small aliquots. Purified viruses were titered using the plaque assay.
Oral epithelial cells (OC3 cells) were infected with HSV-1 at multiplicity of infection (MOI) of 5 or mock infected for 1 h at 37° C. for viral entry to occur. Unbound viruses were removed. Infected cells were then overlaid with appropriate media and incubated at 37° C. The Antrodia camphorata fruit body extracts used were A2 (Antrodia camphorata extracts), A3 (dehydrosulphurenic acid), A4 (antcin K), A5 (versisponic acid), and A6 (dehydroeburicoic acid). For the effects of Antrodia camphorata fruit body extracts, oral cells were treated in three different experimental conditions (FIG. 1): (1) no treatment, (2) pre-treatment with each Antrodia camphorata fruit body extracts before infection and (3) post-treatment with each Antrodia camphorata fruit body extracts after infection. Purified HSV-1 virions were also incubated directly with media only or media containing Antrodia camphorata fruit body extracts. The viral infectivity of treated virions was then examined using the plaque assay.
Viral titers in the supernatants after infection were determined using the plaque assay. Cells were grown to confluence and infected with tenfold serial dilution of the samples. Cells were then overlaid with medium containing 3% carboxymethylcellulose to prevent the formation of secondary plaques. Cells were incubated until well-defined clear plaques were formed. Cells were fixed with 3.7% formaldehyde and stained with crystal violet. Plaques were observed and counted under an inverted microscope. The viral yield of the media-pretreated HSV-1 infected control was considered to be 100%.

[3] = test system: HuS-E/2 immortalized human primary hepatocytes cells; assay: MTT cell viability, HuS-E/2 cells; conditions: 48 h, 20 μg/ml
[4] = test system: HBV; assay: HBV entry/infection of DMSO-differentiated HuS-E/2 cells (HBsAg/HBeAg ELISA, HBV mRNA RT-PCR); format: cell-based, Hepatitis B virus; conditions: for levels of HBV mRNA: HuS-E/2 cells, drug present during infection; for inhibiting the entry of HBV into HuS-E/2 cells: by HBsAg, HBeAg and HBV mRNA expression levels
Protocol: (§3) DMSO-differentiated HuS-E/2 cells were exposed to HBV at a MOI of 10 for 20 h in the presence of the indicated concentration of Antrodia camphorata fruit body extracts, then the HBV and drugs were removed and the cells incubated for 2 days, when HBsAg secreted into the culture medium was measured by ELISA and expressed as a percentage of the value for the non-drug-treated controls. The results are the mean±SD for three independent experiments. *, P<0.05; **, P<0.01; ***, P<0.001.
as §3, with “HBeAg” for “HBsAg”
DMSO-differentiated HuS-E/2 cells were exposed to HBV at a MOI of 10 for 20 h in the presence of the indicated concentration of Antrodia camphorata fruit body extracts, then the HBV and drugs were removed and the cells incubated for 2 days. RNA was then extracted from cells and subjected to RT-PCR to measure HBV mRNA levels. The results expressed were as a percentage of the value for the non-drug-treated cells. Control PCRs were performed for endogenous GAPDH mRNA as the loading control. The results are the mean±SD for three independent experiments. *, P<0.05; **, P<0.01; ***, P<0.001.
HuS-E/2 cells that retains primary hepatocyte characteristics even after prolonged culture are utilized for HBV infection. For HBV infection, HuS-E/2 cells were differentiated with 2% DMSO for 7 days, and virus particles were collected to infect and replicate in HuS-E/2 cells as described in our previous study. These cells are useful to assay infectivity of HBV strains, and screening of anti-HBV agents.
Total DNA is extracted with a Genomic DNA isolation kit (Nexttec Biotechnologie, Germany). Total RNA is isolated from cultured cells using TRIzol® reagent (Invitrogen). […] The results are analyzed with the iCycler iQ real-time PCR detection system (Bio-Rad). […]
To evaluate the effects of Antrodia camphorata fruit body extracts on HBV infectivity and replication, HuS-E/2 cells were infected with ayw subtype HBV derived from HepG2.2.15 cells. The different Antrodia camphorata fruit body extracts were added to the medium during infection with HBV for […], then the infected cells were washed and incubated in fresh medium for 48 hours, when HBsAg and HBeAg in culture medium were detected by ELISA and HBV mRNA was detected by real-time PCR as an index of efficiency of HBV infection.

[5] = test system: HSV-1 virions; assay: Direct effect on infectivity of purified HSV-1 virions, plaque assay; format: cell-based, Herpes simplex virus type 1; conditions: purified virions incubated directly with drug 1 hour at 37° C., dose-dependent
Protocol: Purified HSV-1 was incubated directly with media containing various concentrations of each Antrodia camphorata extracts for 1 hour at 37° C. The viral titers were then examined in oral epithelial cells (OC3) using the plaque assay. The results shown are the mean±SEM from at least three independent experiments. Statistical differences are shown by different lowercase letters (analysis of variance, Tukey, α=0.05).
as §2
Oral epithelial cells (OC3 cells) were infected with HSV-1 at multiplicity of infection (MOI) of 5 or mock infected for 1 h at 37° C. for viral entry to occur. Unbound viruses were removed. Infected cells were then overlaid with appropriate media and incubated at 37° C. The Antrodia camphorata fruit body extracts used were A2 (Antrodia camphorata extracts), A3 (dehydrosulphurenic acid), A4 (antcin K), A5 (versisponic acid), and A6 (dehydroeburicoic acid). […]
Viral titers in the supernatants after infection were determined using the plaque assay. […] Plaques were observed and counted under an inverted microscope. […]

[6] = test system: HepG2.2.15 cells; assay: MTT cell viability, HepG2.2.15 cells; conditions: 48 h, 20 μg/ml
[7] = OC3 cells post-treated with 2.5 μg/ml after HSV-1 infection
[8] = OC3 cells pre-treated with 10 μg/ml for 2 hours before HSV-1 infection

C=C(CC[C@H](C(=O)O)[C@H]1C[C@H](O)[C@@]2(C)C3=CC[C@H]4C(C)(C)[C@@H](O)CC[C@]4(C)C3=CC[C@]12C)C(C)C [A3, dehydrosulphurenic acid]
viability of mock-infected cells or HSV-1 infected cells [1]: not affected evidently | viral yields in the supernatants, post-treatment [2]: did not reach statistical difference | viral yield reduced to [2, 7]: 65% | viral yields in the supernatants, pre-treatment [2]: did not reach statistical difference | viral yield reduced to [2, 8]: 57%

C=C(CC[C@@H](C(=O)O)[C@H]1C[C@H](OC(C)=O)[C@@]2(C)C3=C(CC[C@]12C)[C@@]1(C)CC[C@H](O)C(C)(C)[C@@H]1CC3)C(C)C [A5, versisponic acid]
viability of mock-infected cells or HSV-1 infected cells [1]: not affected evidently | toxic effect (MTT cell viability) [3]: no toxic effect | levels of HBV mRNA [4]: decrease | inhibiting the entry of HBV into HuS-E/2 cells [4]: much more effective | viral yields in the supernatants, post-treatment [2]: significantly reduced | viral yields in the supernatants, pre-treatment [2]: significantly reduced | viral yield reduced to ([2]; OC3 cells pre-treated with 25 μg/ml for 2 hours before HSV-1 infection): 48% | viral yield reduced to ([2]; infected OC3 cells post-treated with 12.5 μg/ml): 57% | viral infectivity of treated HSV-1 virions [5]: statistically significantly inhibited | toxic effect (MTT cell viability) [6]: little or no toxic effect

C=C(CC[C@@H](C(=O)O)[C@H]1CC[C@@]2(C)C3=CC[C@H]4C(C)(C)[C@@H](O)CC[C@]4(C)C3=CC[C@]12C)C(C)C [A6, dehydroeburicoic acid]
toxic effect (MTT cell viability) [3]: no toxic effect | levels of HBV mRNA [4]: decrease | inhibiting the entry of HBV into HuS-E/2 cells [4]: much more effective | viral yields in the supernatants, post-treatment [2]: significantly reduced | viral yield reduced to [2, 7]: 63% | viral yields in the supernatants, pre-treatment [2]: significantly reduced | viral yield reduced to [2, 8]: 37% | viral infectivity of treated HSV-1 virions [5]: statistically significantly inhibited
